Measurements taken from patent publication US12245998B2 (NACUITY PHARMACEUTICALS, INC., priority 2019, dated 2025).

Key:
[1] = target: T1, glutamate cysteine ligase (GCL, EC 6.3.2.2) (Homo sapiens, UniProt P48506); settings: read-out: Km of GCL for substrate; cited from earlier work
T1 sequence (P48506 1-637): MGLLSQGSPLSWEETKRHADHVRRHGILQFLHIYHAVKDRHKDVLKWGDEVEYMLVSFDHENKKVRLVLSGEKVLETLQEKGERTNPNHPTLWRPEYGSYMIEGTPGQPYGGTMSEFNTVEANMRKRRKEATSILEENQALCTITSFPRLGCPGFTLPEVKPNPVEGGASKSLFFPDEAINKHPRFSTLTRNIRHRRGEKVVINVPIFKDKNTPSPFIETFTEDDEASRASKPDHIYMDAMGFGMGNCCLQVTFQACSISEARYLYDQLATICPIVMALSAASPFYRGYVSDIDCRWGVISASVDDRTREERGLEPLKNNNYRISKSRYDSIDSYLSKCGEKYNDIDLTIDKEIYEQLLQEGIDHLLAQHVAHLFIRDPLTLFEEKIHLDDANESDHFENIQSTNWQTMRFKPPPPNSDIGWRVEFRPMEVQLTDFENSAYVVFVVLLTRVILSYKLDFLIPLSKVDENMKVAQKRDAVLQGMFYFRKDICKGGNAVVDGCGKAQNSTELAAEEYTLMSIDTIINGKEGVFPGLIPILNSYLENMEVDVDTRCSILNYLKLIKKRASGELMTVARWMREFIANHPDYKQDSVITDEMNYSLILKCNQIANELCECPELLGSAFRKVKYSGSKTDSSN
T1 sequence (P48507 1-274 partner): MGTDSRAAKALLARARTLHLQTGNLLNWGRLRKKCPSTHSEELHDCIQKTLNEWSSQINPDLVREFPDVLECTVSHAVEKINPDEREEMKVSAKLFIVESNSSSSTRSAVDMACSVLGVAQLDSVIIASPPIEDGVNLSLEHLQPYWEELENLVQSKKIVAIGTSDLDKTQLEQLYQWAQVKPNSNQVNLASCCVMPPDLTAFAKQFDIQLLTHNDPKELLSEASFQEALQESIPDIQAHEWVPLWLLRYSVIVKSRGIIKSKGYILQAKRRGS

[2] = Rheology (elasticity, viscosity) of concentrated HBE airway mucus, cone-and-plate rheometer; set-up: species or system human; settings: for elasticity compared with the DTT group / viscosity compared with the DTT group: 200 mM NACA and NAC versus 20 mM DTT, all p<0.05
Procedure: In the Example 1, the inventors assessed the ability of NACA to reduce the rheological properties of a concentrated (cystic fibrosis-like) mucus, making it more flowable. In this phase, NACA was compared to both a classical clinical reducing agent (N-acetylcysteine; NAC) as well as a potent laboratory reducing agent (Dithiothreitol; DTT). The studies in this phase of the project were performed at a single dose, 200 mM for the mono-thiols NACA and NAC and 20 mM for the di-thiol DTT. Methods. In this study, a single preparation of human bronchial epithelial (HBE) airway mucus at 5.4% solids (i.e., wet-to-dry ratio) was utilized as the test mucus sample. This sample was thawed on ice and split into 4 separate groups. The appropriate amount of test agent (see above) was added to each mucus sample: (1) PBS (vehicle control), (2) NACA, (3) NAC, and (4) DTT. Samples were incubated for 60 minutes at 37ÀöC prior to analysis. Note, the final mucus concentration of each sample (after test agent addition) was ˜4.9% solids. The viscoelastic (i.e., rheological) properties of each mucus preparation was made using a cone-and-plate rheometer (DH3; TA Instruments). For each study, 100 ? of sample was loaded onto the rheometer. Stress controlled sweeps (for viscous and elastic modulus determination) were performed over frequencies from 10-2-102 Hz. To assess yield stress, creep-recovery studies were performed at stresses from 0.05 to 1.5 Pa. Next, the cohesive stress of each sample (i.e., how much force it takes to tear the mucus) was obtained using a peel tester (see Button et. al, PNAS 2018). Studies here were performed at a peel rate of 1 mm/sec.

[3] = humans, oral dose of 600 mg; cited from earlier work
[4] = normal airway surface, pH of 7.0-7.2; cited from earlier work
[5] = maximum tolerated doses (20%); cited from earlier work
[6] = oral, treatment periods of approximately 12-24 weeks, patients with chronic bronchitis; cited from earlier work
[7] = while intubated; cited from earlier work
[8] = cited from earlier work
WT mice = settings: mouse, in vivo; cited from earlier work
[9] = Cohesive strength of HBE airway mucus, peel tester; set-up: species or system human; settings: 200 mM NACA and NAC, 20 mM DTT
Procedure: In the Example 1, the inventors assessed the ability of NACA to reduce the rheological properties of a concentrated (cystic fibrosis-like) mucus, making it more flowable. In this phase, NACA was compared to both a classical clinical reducing agent (N-acetylcysteine; NAC) as well as a potent laboratory reducing agent (Dithiothreitol; DTT). The studies in this phase of the project were performed at a single dose, 200 mM for the mono-thiols NACA and NAC and 20 mM for the di-thiol DTT.
Methods. In this study, a single preparation of human bronchial epithelial (HBE) airway mucus at 5.4% solids (i.e., wet-to-dry ratio) was utilized as the test mucus sample. This sample was thawed on ice and split into 4 separate groups. The appropriate amount of test agent (see above) was added to each mucus sample: (1) PBS (vehicle control), (2) NACA, (3) NAC, and (4) DTT. Samples were incubated for 60 minutes at 37ÀöC prior to analysis. Note, the final mucus concentration of each sample (after test agent addition) was ˜4.9% solids.
The viscoelastic (i.e., rheological) properties of each mucus preparation was made using a cone-and-plate rheometer (DH3; TA Instruments). For each study, 100 ? of sample was loaded onto the rheometer. Stress controlled sweeps (for viscous and elastic modulus determination) were performed over frequencies from 10-2-102 Hz. […]

mucins = settings: 20 mM; cited from earlier work

N[C@@H](CS)C(=O)O [cysteine, L-cysteine]
Km [1]: 100 to 300 µM

CC(=O)N[C@@H](CS)C(=O)O [NAC, N-acetyl-L-cysteine]
elasticity compared with the DTT group [2]: significantly less than the DTT group | viscosity compared with the DTT group [2]: significantly less than the DTT group | time after administration at which no NAC is detectable [3]: 10 to 12 h | fraction in the inactive protonated form [4]: 99% | mucus reduction in CF subjects [5]: did not produce mucus reduction | risk of adverse effects compared with placebo [6]: without increasing the risk of adverse effects | risk of exacerbations compared with placebo [6]: reduces the risk of exacerbations | symptoms compared with placebo [6]: improves symptoms | efficacy for atelectasis/mucus plugging [7]: ineffective | removal of mucus plugs ([8]; high concentrations, delivered topically via bronchoscopy, subjects with CF or tracheostomies): could remove mucus plugs | lung function following inhalation treatment ([8]; inhalation, high NAC concentrations (20%, 1,200 mOsm) aerosolized): modest improvements in lung function | airway toxicity in WT mice (WT mice): induced epithelial cell damage and acute neutrophilic responses

CC(=O)N[C@@H](CS)C(N)=O
elasticity compared with the DTT group [2]: significantly less than the DTT group | viscosity compared with the DTT group [2]: significantly less than the DTT group | elasticity and viscosity, NACA compared with NAC ([2]; 200 mM dose): no significant difference | reducing the viscoelasticity of mucus ([2]; 200 mM dose): very effective | reduction of cohesive strength of mucus ([9]; peel rate 1 mm/sec): very effective

O[C@H](CS)[C@H](O)CS (racemic) [DTT, Dithiothreitol]
cohesive strength, comparison between test agents [9]: slightly better than NAC and NACA | reduction of mucins (mucins): fully reduce mucins

B1: Dornasealfa: mucoactive agent reviewed for adults with acute lung conditions (protein, UniProt P24855 23-282, looked up)
Deoxyribonuclease-1: LKIAAFNIQTFGETKMSNATLVSYIVQILSRYDIALVQEVRDSHLTAVGKLLDNLNQDAPDTYHYVVSEPLGRNSYKERYLFVYRPDQVSAVDSYYYDDGCEPCGNDTFNREPAIVRFFSRFTEVREFAIVPLHAAPGDAVAEIDALYDVYLDVQEKWGLEDVMLMGDFNAGCSYVRPSQWSSIRLWTSPTFQWLIPDSADTTATPTHCAYDRIVVAGMLLRGAVVPDSALPFNFQAAYGLSDQLAQAISDHYPVEVMLK
efficacy for atelectasis/mucus plugging [7]: ineffective
